Laboratory results from US20160045440A1, “FORMULATION OF AMORPHOUS CALCIUM L-5-METHYLTETRAHYDROFOLATE (L-5-MTHF-Ca)” (CHEMO RESEARCH, S.L., priority 2013, published 2016).

How the values were obtained:
[1] = Stability of amorphous calcium L-5-methylfolate and cysteine at weight ratios 1:0 to 1:33 on storage; type: physicochemical
[2] = Stability of powder mixtures of amorphous calcium L-5-methylfolate with stabilizing agents (1:10) on storage; type: physicochemical; settings: 5° C. for one month; ALC:stabilizing agent 1:10
Description: Powder mixtures of amorphous calcium L-5-methylfolate with each of the stabilizing agents disclosed in the following table were prepared. In all the cases, the mixture contained a weight amount of calcium L-5-methylfolate to stabilizing agent of 1:10.

[3] = storage time of one month at 40° C.; cited from earlier work

## CN1c2c(nc(N)[nH]c2=O)NC[C@@H]1CNc1ccc(C(=O)N[C@@H](CCC(=O)[O-])C(=O)[O-])cc1.[Ca+2] [Amorphous Calcium L-5-methylfolate (ALC), N-{4-[[((6S)-2-amino-1,4,5,6,7,8-hexahydro-5-methyl-4-oxo-6-pteridinyl)methyl]amino]benzoyl}-L-glutamic acid, calcium salt]
[1]; 5° C. for 1 month
  Assay (%): 99.59%
  Related substances (%) D-Mefox: 0.42%
  Related substances (%) HO-MeTHFA: 1.80%
  Related substances (%) L-Mefox: 2.52%
  Related substances (%) TOTAL impurities: 5.59%
[1]; 5° C. for 3 months
  Assay (%): 96.39%
  Related substances (%) D-Mefox: 0.32%
  Related substances (%) HO-MeTHFA: 1.34%
  Related substances (%) L-Mefox: 2.74%
  Related substances (%) TOTAL impurities: 5.74%
[1]; 25° C./60% HR for 1 month
  Assay (%): 89.13%
  Related substances (%) D-Mefox: 0.71%
  Related substances (%) HO-MeTHFA: 1.75%
  Related substances (%) L-Mefox: 4.68%
  Related substances (%) TOTAL impurities: 9.19%
[1]; 25° C./60% HR for 3 months
  Assay (%): 84.03%
  Related substances (%) D-Mefox: 0.57%
  Related substances (%) HO-MeTHFA: 1.44%
  Related substances (%) L-Mefox: 6.49%
  Related substances (%) TOTAL impurities: 11.95%
[1]; 40° C./75% HR for 1 month
  Assay (%): 81.95%
  Related substances (%) D-Mefox: 0.93%
  Related substances (%) HO-MeTHFA: 1.84%
  Related substances (%) L-Mefox: 8.97%
  Related substances (%) TOTAL impurities: 15.57%
[2]
  Assay (%) of Calcium L-5-methylfolate that remains in the mixture: 91.02%
  Related substances (%) D-Mefox: 0.50%
  Related substances (%) HO-MeTHFA: 1.18%
  Related substances (%) L-Mefox: 4.27%
  Related substances (%) TOTAL impurities: 8.0%

## CN1c2c(nc(N)[nH]c2=O)NC[C@@H]1CNc1ccc(C(=O)N[C@@H](CCC(=O)[O-])C(=O)[O-])cc1.[Ca+2] [Metafolin, Calcium L-5-methylfolate]
[3]
  Metafolin that remains in the compositions obtained by granulation: 60%
